In article PMC2785710 (Bioorganic & medicinal chemistry letters, 2009):

Test: in vitro metabolic stability in pooled mouse liver microsomes
Type: in vitro ADME
Conditions: for half-life: t1/2, mouse liver microsomes

| half-life [min] | microsomal CLint [µL/min/mg] | SMILES |
| --- | --- | --- |
| 348 | – | O=C(Nc1ccccc1Cl)c1cnc2ccc(C3CCNCC3)cn12.O=C(O)C(=O)O [Compound 32] |
| 27 | 51 ± 2.1 | O=C(Nc1ccccc1Cl)c1cnn2ccc(-c3ccccc3)cc12 [Compound 54] |
| 8.3 | 167 ± 4.2 | O=C(Nc1ccccc1Cl)c1cnn2ccc(N3CCCCC3)cc12 [Compound 58] |
| 3.8 | 361 ± 64 | O=C(Nc1ccccc1Cl)c1cnc2ccccn12 [Compound 69] |
| 53 | 26 ± 0.8 | O=C(Nc1ccccc1Cl)c1cnc2ccc(-c3ccccc3)cn12 [Compound 70] |
| 20 | 71 ± 2 | O=C(Nc1ccccc1Cl)c1cnc2ccc(N3CCCCC3)cn12 [Compound 71] |
